# Reference: patent US11229642B2, “Composition and method for reducing neutropenia” (BeyondSpring Pharmaceuticals, Inc., priority 2016, dated 2022)
# Read-outs that look alike come from different tables or passages of the source.
# Legend:
# [1] = system: cis-platin induced neutropenia; type: in vivo, Male Sprague-Dawley rats
# Description: Male Sprague-Dawley rats were first treated with cis-platin or vehicle saline (control). […] Each test group included 6 rats.
# The ANC decreased following cisplatin administration.
# [2] = system: cyclophosphamide-induced neutropenia; conditions: for ANCs (Mean ± SD): Day −1 (pre-dose baseline), N = 5 rats per group
# Method: The control sample contained 7.1% Tween 80 (v/v), 25.5% Propylene glycol (v/v), and 67.4% D5W (5% dextrose in water) (v/v). Each test group included 15 rats.
# Blood collection was performed for absolute neutrophil counts in blood samples collected at Day −1 (pre-dose), Day 2 (24 h), Day 3 (48 h), Day 10 (9 days) and Day 15 (14 days).
# These were expressed as a percentage of the control level on Day 3.
# [3] = system: doxorubicin induced neutropenia; test: Example 3: ANC in doxorubicin induced neutropenia; type: in vivo, Male Sprague-Dawley rats; conditions: for ANC level expressed as Percent Naïve Group (% Naïve): doxorubicin 3 mg/kg, plinabulin 7.5 mg/kg in the combination
# Method: Male Sprague-Dawley rats were first treated with doxorubicin or vehicle saline (control). […] Each test group included 6 rats. The doxorubicin was administered intravenously, and plinabulin was administered through intraperitoneal injection.
# [4] = system: topotecan induced neutropenia; test: Example 5: ANC in topotecan induced neutropenia; type: in vivo, adult male Sprague-Dawley rats
# Method: Topotecan (0.25 or 1.0 mg/kg IV) was administered to adult male Sprague-Dawley rats on Days 1, 3 and 5. Topotecan was administered by intravenous infusion over a period of 30 minutes using a syringe infusion pump and sterile disposable syringes at a dose volume of 10 mL/kg.
# Plinabulin (3.75 mg/kg, IP) was dosed 1 hour post topotecan following each topotecan dose. Plinabulin (7.5 mg/kg IP) was dosed 1 hour after the topotecan dose (0.25 mg/kg) on Day 1 only.
# Blood collection was performed Days −2, 0, 2, 4, 6, 7, 8, 9, 10 for the pilot and Days −2, 0, 2, 3, 4, 5, 6, 7, 8, 10, 15 for the main study. Blood samples collected on day 3 were analyzed for total and differential blood cell counts.
# [5] = system: neutropenia caused by cyclophosphamide; test: Example 1: neutrophil count after cyclophosphamide, plinabulin or the combination; type: in vivo, male Sprague-Dawley rats; conditions: all rats, Days −1, 2, 3 and 10; FIG. 3
# Method: Fifteen rats each were placed in 4 treatment groups according to Table 1. The indicated doses were administered through intraperitoneal injection on Day 1 with Administration 2 being given 1 hour following Administration 1.
# D5W is 5% dextrose in water for injection. For groups that included administration of plinabulin, plinabulin is first dissolved in the Tween 80-PG mixture and then diluted with D5W.
# The animals were randomized based on body weight and assigned to groups. Before the initiation of dosing, any assigned animals considered unsuitable for use in the study were replaced by alternate animals obtained from the same shipment and maintained under the same environmental conditions.
# Blood was collected by jugular venipuncture for Day −1 bleeds and terminally via abdominal aorta under anesthesia for Day 2 (5 rats per Group i.e. total 20 rats), Day 3 (5 rats per Group i.e. total 20 rats) and Day 10 (5 rats per Group i.e. total 20 rats). After collection, the samples were tested for total and differential cell counts. Five rats per group were terminated on Days 2, 3, and 10. Animals were anesthetized with isoflurane (1-5%) and ˜1-2.0 mL of blood will be collected via abdominal aorta. After collection, 0.3 mL was transferred to EDTA tubes and analyzed for total and differential cell counts. […]
smiles,measurement,setting,value
"N.N.[Cl][Pt][Cl] [Cisplatin, reference compound]",ANCs,"[1]; Day 3 (cisplatin ANC nadir), cisplatin 6.5 mg/kg alone",0.93 ± 0.28 10^3 Cells/μL
same,ANCs,"[1]; Day −1 (predose), cisplatin 6.5 mg/kg group",2.03 ± 0.81 10^3 Cells/μL
same,Day 3 ANCs Expressed as Percent of Baseline (Day −1),[1]; cisplatin 6.5 mg/kg alone,45.8%
O=P1(N(CCCl)CCCl)NCCCO1 (centres unmarked) [Cyclophosphamide],ANCs (Mean ± SD),[2],1.68 ± 0.19 10^3 Cells/μL
same,induction of neutropenia,[2]; single intra-peritoneal injection of cyclophosphamide,induced neutropenia in rats at around 48 h
COc1cccc2c1C(=O)c1c(O)c3c(c(O)c1C2=O)C[C@@](O)(C(=O)CO)C[C@@H]3O[C@H]1C[C@H](N)[C@H](O)[C@H](C)O1 [Doxorubicin],time after administration at which neutropenia effect of doxorubicin was seen,"[3]; ANC as percentage of naïve animals, severity increased until Day 5",≤ 24 h
same,"ANC level, Mean","[3]; Day 2, doxorubicin 3.0 mg/kg IV alone",4.37 ± 10^3/μL
same,ANC level expressed as Percent Naïve Group (% Naïve),[3]; Day 2,52.6%
same,"ANC level, Mean","[3]; Day 3, doxorubicin 3.0 mg/kg IV alone",0.88 ± 10^3/μL
same,ANC level expressed as Percent Naïve Group (% Naïve),[3]; Day 3,50.9%
same,"ANC level, Mean","[3]; Day 4, doxorubicin 3.0 mg/kg IV alone",1.02 ± 10^3/μL
same,ANC level expressed as Percent Naïve Group (% Naïve),[3]; Day 4,30.8%
same,"ANC level, Mean","[3]; Day 5, doxorubicin 3.0 mg/kg IV alone",0.65 ± 10^3/μL
same,ANC level expressed as Percent Naïve Group (% Naïve),[3]; Day 5,19.2%
same,"ANC level, Mean","[3]; Day 8, doxorubicin 3.0 mg/kg IV alone",0.97 ± 10^3/μL
same,ANC level expressed as Percent Naïve Group (% Naïve),[3]; Day 8,32.3%
same,"ANC level, Mean","[3]; Day −1 (pre-dose), doxorubicin 3.0 mg/kg IV group",1.79 ± 10^3/μL
same,induction of neutropenia,[3]; doxorubicin 3.0 mg/kg,induced a long-lasting neutropenia
same,duration of ANC decrease following doxorubicin administration,[3]; doxorubicin 3 mg/kg IV single dose,at least 8 days
"CC(C)(C)c1[nH]cnc1/C=c1\[nH]c(=O)/c(=C/c2ccccc2)[nH]c1=O [Plinabulin, (3Z,6Z)-3-Benzylidene-6-{[5-(2-methyl-2-propanyl)-1H-imidazol-4-yl]methylene}-2,5-piperazinedione]",effect of plinabulin on topotecan-induced neutropenia,"[4]; plinabulin 3.75 and 7.5 mg/kg IP, one hour after topotecan",significantly reduced the topotecan-induced neutropenia
same,ANCs (Mean ± SD),[2],1.69 ± 0.21 10^3 Cells/μL
same,"reduction of neutropenia caused by cyclophosphamide, time course",[5],reduced the neutropenia caused by cyclophosphamide
same,"ANC level, Mean","[3]; Day 2, plinabulin 7.5 mg/kg IP alone",5.24 ± 10^3/μL
same,"ANC level, Mean","[3]; Day 3, plinabulin 7.5 mg/kg IP alone",1.98 ± 10^3/μL
same,"ANC level, Mean","[3]; Day 4, plinabulin 7.5 mg/kg IP alone",2.17 ± 10^3/μL
same,"ANC level, Mean","[3]; Day 5, plinabulin 7.5 mg/kg IP alone",2.13 ± 10^3/μL
same,"ANC level, Mean","[3]; Day 8, plinabulin 7.5 mg/kg IP alone",3.18 ± 10^3/μL
same,"ANC level, Mean","[3]; Day −1 (pre-dose), plinabulin 7.5 mg/kg IP group",2.02 ± 10^3/μL
same,ANC in plinabulin only treated rats vs naïve animals,"[3]; plinabulin 7.5 mg/kg IP alone, all time points",not statistically different from naïve animals at any time point
same,"effect of plinabulin on doxorubicin effect (ANC), Days 2 and 3","[3]; plinabulin 7.5 mg/kg, Days 2 and 3 post dose",significantly diminished the effect of doxorubicin
same,"effect of plinabulin on doxorubicin-induced neutropenia, days 5 and 8","[3]; plinabulin 7.5 mg/kg, days 5 and 8",ameliorated the doxorubicin-induced neutropenia to a lesser degree
same,effect of plinabulin on doxorubicin-induced neutropenia,"[3]; plinabulin 3.5 and 7.5 mg/kg IP, one hour after doxorubicin",significantly reduced the doxorubicin-induced neutropenia
same,ANCs,"[1]; Day 3, plinabulin 4.9 mg/kg alone",2.42 ± 0.73 10^3 Cells/μL
same,ANCs,"[1]; Day 3, plinabulin 7.5 mg/kg alone",4.55 ± 1.41 10^3 Cells/μL
same,ANCs,"[1]; Day −1 (predose), plinabulin 4.9 mg/kg group",1.98 ± 0.47 10^3 Cells/μL
same,ANCs,"[1]; Day −1 (predose), plinabulin 7.5 mg/kg group",2.12 ± 0.25 10^3 Cells/μL
same,"ANC levels vs predose levels, plinabulin one hour post cisplatin","[1]; plinabulin 2.3 mg/kg, 4.9 mg/kg and 7.5 mg/kg one hour post cisplatin, Day 3",not significantly different from the predose levels
same,Day 3 ANCs Expressed as Percent of Baseline (Day −1),[1]; plinabulin 4.9 mg/kg alone,122.2%
same,change of ANC levels by plinabulin alone,"[1]; plinabulin 4.9 mg/kg alone, Day 3 vs predose",did not change ANC levels
same,Day 3 ANCs Expressed as Percent of Baseline (Day −1),[1]; plinabulin 7.5 mg/kg alone,214.6%
"CC[C@@]1(O)C(=O)OCc2c1cc1n(c2=O)Cc2cc3c(CN(C)C)c(O)ccc3nc2-1 [topotecan, reference compound]",induction of neutropenia,"[4]; topotecan 1 or 0.25 mg/kg IV on Days 1, 3 and 5, FIGS. 11A, 11B",induced a long-lasting neutropenia
